# Assay results reported in PMC9241695, “Selective Metal Chelation by a Thiosemicarbazone Derivative Interferes with Mitochondrial Respiration and Ribosome Biogenesis in Candida albicans” (Microbiology Spectrum, 2022).
# Tests used:
# C. albicans SC5314 [1] = experiment: G. mellonella infection model; assay type: in vivo, Galleria mellonella; conditions: 19ak 0.4 μg per larva, FLC 2 μg per larva
# Protocol: The G. mellonella infection model was used to evaluate the in vivo activity of 19ak in terms of survival, fungal burden, and histological features. A total of 60 larvae of similar size were selected and randomly allocated to four groups. The last right foreleg of each larva was injected with 10 μL of C. albicans SC5314 suspension (2 × 10^7 CFU/mL). Two hours after infection, the larvae were injected with 10 μL of drug or vehicle as follows for the four groups: 19ak (0.4 μg per larva), FLC (2 μg per larva), control (PBS), and blank control (no injection with C. albicans but injections of sterile PBS twice). The data for the blank control are not shown because this group survived well during the experiment. Failure to respond to light contact with forceps was considered a sign of larval death. In the survival assay, the number of surviving larvae in each group was calculated at the same time every day for 4 days.
# To determine fungal burden, larval infection and treatment were performed as described above with groups of 30 larvae each. Each day, five larvae were randomly selected from each group and homogenized with glass beads in 0.5 mL of sterile PBS. The homogenate was serially diluted with sterile PBS, and 5 μL was spread on a yeast-peptone-dextrose solid plate ([62]). Experiments were performed at least three times independently.
# We also conducted histopathological studies to explore the therapeutic effects of the drugs on G. mellonella fungal infection. First, the groups of larvae were infected as described above. After 48 h, three larvae from each group were randomly selected and fixed in 4% paraformaldehyde for sectioning and Periodic acid-Schiff (PAS) staining. The tissue was observed and photographed under an Olympus microscope with 40 × magnification (IX71, Olympus, Tokyo, Japan). The experiments were performed independently a minimum of three times.
# C. albicans YEM15 = experiment: Microbroth dilution MIC80; assay type: cell-based; conditions: Candida albicans; C. albicans YEM15; read-out: MIC80
# Source text: (§1) Compound library. The thiosemicarbazone derivatives Triapine and COTI-2 were purchased from Med Chem Express (MCE). The other 87 thiosemicarbazones used in this study were previously synthesized by our collaborators (1, 2). Their structures are shown in Table 1 and Table S1 to help the reader clearly understand the relationship between structure and activity.
# (§2) Strains and culture conditions. Clinically derived C. albicans isolates, including G5, F5, and Gu5, were kindly provided by Professor Joachim Morschhäuser of the University of Würzburg. Other clinical C. albicans isolates were kindly donated by Professor Qingguo Qi of Shandong University and Qianfoshan Hospital of Shandong Province Other Candida strains were obtained from Jinan Central Hospital.
# (§3) The zap1 mutant and its complemented strain were kindly provided by Professor Aaron P. Mitchell of Carnegie Mellon University (3). The C. neoformans strains used in this study was kindly donated by Professor Guojian Liao of Southwest University and A. fumigatus strain used in this study was provided by Professor Ling Lu of Nanjing Normal University. Before in vitro and in vivo experiments, all C. albicans strains were grown on YPD agar plates. After culturing at 30°C for 24 h, colonies of each strain were cultured in liquid YPD medium at 30°C with continuous shaking […]
# (§4) Antifungal susceptibility testing. To determine in vitro antifungal activities, the microbroth dilution method was carried out in RPMI1640 medium according to the guidelines of the Clinical and Laboratory Standards Institute (4, 5). The initial concentration in RPMI1640 medium was 1 × 10^3 CFU/mL for the C. albicans and C. neoformans suspensions but 1 × 10^4 CFU/mL for A. fumigatus. The range of final drug concentrations was 0.0156–64 μg/mL. The plates were incubated at35°C for 24 […]
# (§5) h (for C. albicans, C. krusei, C. tropicalis, C. parapsilosis) or 48 h (for C. neoformans, A. fumigatus). The MIC was determined based on visible growth inhibition compared with the control. All experiments were performed in duplicate. […]
# C. albicans YEM13 = experiment: Microbroth dilution MIC80; assay type: cell-based; conditions: Candida albicans
# Source text: as §1, §2, §3, §4, §5
# C. albicans 28D = experiment: Microbroth dilution MIC80; assay type: cell-based; conditions: Candida albicans; C. albicans 28D; read-out: MIC80
# Source text: as §1, §2, §3, §4, §5
# C. albicans 28A = experiment: Microbroth dilution MIC80; assay type: cell-based; conditions: Candida albicans; C. albicans 28A; read-out: MIC80
# Source text: as §1, §2, §3, §4, §5
# C. albicans CA3 = experiment: Microbroth dilution MIC80; assay type: cell-based; conditions: Candida albicans; C. albicans CA3; read-out: MIC80
# Source text: as §1, §2, §3, §4, §5
# C. albicans DSY654 = experiment: Microbroth dilution MIC80; assay type: cell-based; conditions: Candida albicans
# Source text: as §1, §2, §3, §4, §5
# C. albicans 11f = experiment: Microbroth dilution MIC80; assay type: cell-based; conditions: Candida albicans; C. albicans 11f; read-out: MIC80
# Source text: as §1, §2, §3, §4, §5
# C. albicans 28I = experiment: Microbroth dilution MIC80; assay type: cell-based; conditions: Candida albicans; C. albicans 28I; read-out: MIC80
# Source text: as §1, §2, §3, §4, §5
# C. albicans CA1 = experiment: Microbroth dilution MIC80; assay type: cell-based; conditions: Candida albicans; C. albicans CA1; read-out: MIC80
# Source text: as §1, §2, §3, §4, §5
# C. albicans 24g = experiment: Microbroth dilution MIC80; assay type: cell-based; conditions: Candida albicans; C. albicans 24g; read-out: MIC80
# Source text: as §1, §2, §3, §4, §5
# C. albicans F5 = experiment: Microbroth dilution MIC80; assay type: cell-based; conditions: Candida albicans; C. albicans F5; read-out: MIC80
# Source text: as §1, §2, §3, §4, §5
# C. albicans 11e = experiment: Microbroth dilution MIC80; assay type: cell-based; conditions: Candida albicans; C. albicans 11e; read-out: MIC80
# Source text: as §1, §2, §3, §4, §5
# C. neoformans 108 = experiment: Microbroth dilution MIC80; assay type: cell-based; conditions: Cryptococcus neoformans; C. neoformans 108; read-out: MIC80
# Source text: as §1, §2, §3, §4, §5
# C. tropicalis CT2 = experiment: Microbroth dilution MIC80; assay type: cell-based; conditions: Candida tropicalis; C. tropicalis CT2; read-out: MIC80
# Source text: as §1, §2, §3, §4, §5
# C. albicans CA4 = experiment: Microbroth dilution MIC80; assay type: cell-based; conditions: Candida albicans; C. albicans CA4; read-out: MIC80
# Source text: as §1, §2, §3, §4, §5
# A. fumigatus 1161 = experiment: Microbroth dilution MIC80; assay type: cell-based; conditions: Aspergillus fumigatus; A. fumigatus 1161; read-out: MIC80
# Source text: as §1, §2, §3, §4, §5
# C. krusei CK1 = experiment: Microbroth dilution MIC80; assay type: cell-based, Candida krusei; conditions: Pichia kudriavzevii; C. krusei CK1; read-out: MIC80
# Source text: as §1, §2, §3, §4, §5
# C. albicans G5 = experiment: microbe, parasite or virus in culture; assay type: cell-based; conditions: Candida albicans; C. albicans G5; read-out: MIC80
# Source text: as §1, §2, §3, §4, §5
# C. albicans Gu5 = experiment: microbe, parasite or virus in culture; assay type: cell-based; conditions: Candida albicans; C. albicans Gu5; read-out: MIC80
# Source text: as §1, §2, §3, §4, §5
# A. fumigatus AF293 = experiment: Antifungal susceptibility testing, microbroth dilution MIC; assay type: cell-based; conditions: Aspergillus fumigatus, AF293; standard strain of A. fumigatus; 48 h; read-out: MIC (μg/mL) against fungi AF293
# Source text: as §1, §2
# (§6) The zap1 mutant and its complemented strain were kindly provided by Professor Aaron P. Mitchell of Carnegie Mellon University (3). The C. neoformans strains used in this study was kindly donated by Professor Guojian Liao of Southwest University and A. fumigatus strain used in this study was provided by Professor Ling Lu of Nanjing Normal University. […]
# as §4, §5
# C. neoformans H99 = experiment: as above; assay type: cell-based; conditions: Cryptococcus neoformans, H99; C. neoformans wild-type strain; 48 h; read-out: MIC (μg/mL) against fungi H99
# Source text: as §1, §2, §6, §4, §5
# C. albicans SC5314 [2] = experiment: as above; assay type: cell-based; conditions: Candida albicans, SC5314; C. albicans wild-type strain; RPMI1640, 35°C, 24 h; read-out: MIC (μg/mL) against fungi SC5314
# Source text: as §1, §2, §3, §4, §5
# C. albicans SC5314 [3] = experiment: Drug resistance study by serial passage; assay type: cell-based, Candida albicans; conditions: RPMI 1640 medium, 40-day period, passages at 0.5 × MIC
# C. parapsilosis CP001 = experiment: Microbroth dilution MIC80; assay type: cell-based, Candida parapsilosis; conditions: Lodderomyces parapsilosis; C. parapsilosis CP001; read-out: MIC80
# Source text: as §1, §2, §3, §4, §5
compound,measurement,setting,value
"OC(Cn1cncn1)(Cn1cncn1)c1ccc(F)cc1F [FLC, fluconazole, reference compound]",Histopathology of infected larvae,"C. albicans SC5314 [1]; 48 h, PAS staining",fewer infected areas
same,Fungal burden of infected larvae,C. albicans SC5314 [1]; compared with the control group,greatly reduced the fungal burden
same,MIC80,C. albicans YEM15,64 µg/mL
same,MIC80,C. albicans YEM13,64 µg/mL
same,MIC80,C. albicans 28D,> 128 µg/mL
same,MIC80,C. albicans 28A,> 128 µg/mL
same,MIC80,C. albicans CA3,2 µg/mL
same,MIC80,C. albicans DSY654,0.25 µg/mL
same,MIC80,C. albicans 11f,1 µg/mL
same,MIC80,C. albicans 28I,> 128 µg/mL
same,MIC80,C. albicans CA1,2 µg/mL
same,MIC80,C. albicans 24g,1 µg/mL
same,MIC80,C. albicans F5,> 128 µg/mL
same,MIC80,C. albicans 11e,1 µg/mL
same,MIC80,C. neoformans 108,2 µg/mL
same,MIC80,C. tropicalis CT2,2 µg/mL
same,MIC80,C. albicans CA4,8 µg/mL
same,MIC80,A. fumigatus 1161,> 64 µg/mL
same,MIC80,C. krusei CK1,2 µg/mL
same,MIC80,C. albicans G5,> 128 µg/mL
same,MIC80,C. albicans Gu5,> 128 µg/mL
same,MIC,A. fumigatus AF293,> 64 µg/mL
same,MIC,C. neoformans H99,2 µg/mL
same,MIC,C. albicans SC5314 [2],2 µg/mL
same,Change of MIC after repeated exposure,C. albicans SC5314 [3],significant increase in the MIC value
same,MIC80,C. parapsilosis CP001,1 µg/mL
